Reference: PMC6370202, “The catabolism of 3,3’-thiodipropionic acid in Variovorax paradoxus strain TBEA6: A proteomic analysis” (PLoS ONE, 2019)

Columns and labels:
[1] = target: T1, PctRe (propionyl-CoA transferase of Ralstonia eutropha) (Cupriavidus necator, UniProt Q0K874); test: enzymatic CoA transfer, product by HPLC/MS; assay type: biochemical; conditions: 2 mM TDP, 1 mM acetyl-CoA, 20 ug PctRe in 1 ml, 100 mM Tris/HCl pH 8.0, 30 °C, 45 min
T1 construct: gene pct; recombinant from pET-19b::pctRe in E. coli BL21 (DE3) pLysS; N-terminal His-tag; Ni-Sepharose purified
T1 sequence (Q0K874 1-542): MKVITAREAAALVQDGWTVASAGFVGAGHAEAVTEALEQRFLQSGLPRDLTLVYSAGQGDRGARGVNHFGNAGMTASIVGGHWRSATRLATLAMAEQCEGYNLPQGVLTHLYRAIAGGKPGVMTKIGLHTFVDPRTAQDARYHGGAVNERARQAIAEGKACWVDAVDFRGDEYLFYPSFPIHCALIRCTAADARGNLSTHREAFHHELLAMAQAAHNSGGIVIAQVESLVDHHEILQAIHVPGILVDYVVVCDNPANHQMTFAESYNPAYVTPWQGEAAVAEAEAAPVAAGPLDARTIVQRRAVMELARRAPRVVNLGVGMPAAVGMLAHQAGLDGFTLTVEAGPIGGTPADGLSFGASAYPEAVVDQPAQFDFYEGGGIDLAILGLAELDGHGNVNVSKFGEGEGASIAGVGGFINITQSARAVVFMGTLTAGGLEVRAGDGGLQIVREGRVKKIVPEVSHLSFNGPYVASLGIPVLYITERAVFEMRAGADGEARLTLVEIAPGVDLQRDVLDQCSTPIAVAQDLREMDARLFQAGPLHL

Ech-20 (VPARA_05520) = target: T2, Ech-20 (VPARA_05520) (Variovorax paradoxus, UniProt A0A0H2MCT8); test: thermal shift assay, SYPRO Orange; assay type: binding; conditions: 2 uM protein, 2 mM ligand, 100 mM Tris/HCl pH 8.0; increased stability; no shift with TDP
T2 construct: recombinant from pET-32a(+)::ech-20 in E. coli BL21 (DE3) pLysS; Ni-Sepharose purified
T2 sequence (A0A0H2MCT8 1-154): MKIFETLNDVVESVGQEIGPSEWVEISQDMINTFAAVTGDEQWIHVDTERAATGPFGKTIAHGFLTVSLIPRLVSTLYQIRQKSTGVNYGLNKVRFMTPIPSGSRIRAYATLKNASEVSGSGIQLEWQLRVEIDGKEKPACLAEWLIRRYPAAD

O=C(O)CCSCCC(=O)O [TDP]
enzymatic CoA transfer, product by HPLC/MS [1]: transfer of CoA from acetyl-CoA to TDP was accomplished using recombinant PctRe

CC(=O)SCCNC(=O)CCNC(=O)[C@H](O)C(C)(C)COP(=O)(O)OP(=O)(O)OC[C@H]1O[C@@H](n2cnc3c(N)ncnc32)[C@H](O)[C@@H]1OP(=O)(O)O [acetyl-CoA]
enzymatic CoA transfer, product by HPLC/MS ([1]; CoA donor): transfer of CoA from acetyl-CoA to TDP was accomplished using recombinant PctRe

CC(C)(COP(=O)(O)OP(=O)(O)OC[C@H]1O[C@@H](n2cnc3c(N)ncnc32)[C@H](O)[C@@H]1OP(=O)(O)O)[C@@H](O)C(=O)NCCC(=O)NCCSC(=O)CCSCCC(=O)O [TDP-CoA]
shift in the melting temperature (Ech-20 (VPARA_05520)): a shift in the melting temperature of Ech-20 in the presence of TDP-CoA was detected
